Measurements taken from patent publication US12016943B2, “Antiperspirant or deodorant composition” (Firmenich SA, priority 2016, dated 2024).

Tests used:
[1] = Sensory evaluation of spray deodorant on cotton t-shirts: perceived fragrance intensity; settings: deodorant spray on t-shirt, immediately after application
Description: Test formulations comprising either fragrance formulation 1 containing the β-thio carbonyl derivative profragrance of formula (I), commercially available as HALOSCENT®-D, at the amounts indicated, or fragrance formulation 1 containing the 0-thio carbonyl derivative profragrance of formula (I), commercially available as HALOSCENT®-I were formulated as deodorant sprays.
One gram of each of the test formulation was applied to separate 2-3 year old cotton t-shirts. In parallel, control formulations, comprising fragrance formulation alone (i.e., lacking the β-thio carbonyl derivative profragrance of formula (I)) were similarly applied to separate t-shirts.
A minimum of 18 skilled panelists were asked to evaluate the intensity of the fragrance of the […], in a blind, balanced, randomized study, with a 20 second break between samples.
The panelists were asked to rank the intensity of the fragrance from 0 (not perceptible), to 10 (very strong odour). The results of the evaluation were analyzed using Analysis of Variance with Duncan's post-hoc analysis (α=0.05). The analyzed results are shown in FIG. 1, where the average for each sample at the times indicated are shown. The error bars indicate the 95% confidence level. ***=a significant difference at 99.9%; **=a significant difference at 99%; *=significant difference at 95%; NS=no significant difference.

[2] = Assessment of coloration of deodorant or antiperspirant formulations containing perfuming ingredients with or without Haloscent D; format: physicochemical; parameters: key to Coloration of antiperspirant stick: CO: color; COYE: yelow color; VSCOYE: very slight yellow color; SCOYE: slight yellow color; VCOYE: very yellow color; NC: no color; DECO: decoloration; CL: cloud; VCL: very cloud; WH: white; VCOBR: very brown color; COPI: ping color; settings: perfuming ingredient 0.5 wt %; for Coloration of antiperspirant stick: after 7 days
Protocol: (§1) Preparation of an Antiperspirant Spray Formulation: Using a high speed stirrer, Silica (Table 1) and Quaternium-18-Hectorite (Table 1) were added to the Isopropyl miristate (Table 1) and Cyclomethicone mixture (Table 1). Once completely swollen, Aluminium Chlorohydrate (Table 1) was added portion wise under stirring until the mixture was homogeneous and without lumps. The aerosol cans were filled with 25% Suspension of the suspension and 75% of Propane/Butane (2.5 bar).
(§2) Preparation of Deodorant Spray Formulation: All the ingredients according to the sequence of the Table 2 were mixed and dissolved. Then the aerosol cans were filled, crimp and add the propellant (Aerosol filling: 40% active solution 60% Propane/Butane 2.5 bar).
(§3) Part A was prepared by sprinkling little by little the Hydroxyethylcellulose (Table 3) in the water (Table 3) whilst rapidly stirring with the turbine. Stirring was continued until the Hydroxyethylcellulose had entirely swollen and giving a limpid gel. Then, Part B (Table 3) was poured little by little in Part A whilst continuing stirring until the whole was homogeneous. Part C was added (Table 3).
(§4) Preparation of a Deodorant Stick Formulation: All the components of Part A were weighted (Table 4) and heated up to 70-75° C. Ceteareth-25 (Table 4) was added once the other Part A ingredients were mixed and heated. Once the Ceteareth-25 was dissolved, the Stearic Acid was added. Part B was prepared by dissolving the Triclosan (Table 4) in 1,2 Propylene Glycol (Table 4). Water which has evaporated was added. Slowly under mixing, Part B was poured into part A. To stock, a plastic bag into the bucket was put in to be sealed after cooling. Moulds was filled at about 70° C.
(§5) Preparation of an Antiperspirant Stick Formulation: All the components of Part A were weighted (Table 5), heated up to 70-75° C. and mixed well. Ingredient of Part B was dispersed in Part A. The mixture was mixed and putted into a tick at 65° C.
(§6) Assessment of Coloration in the Perfuming Ingredients: To set of deodorant or antiperspirant formulations of point a) to e) has been prepared. A perfuming ingredient (0.5 wt %—Table 6, 7 and 8) was added to the first set a and a perfuming ingredient (0.5 wt %—Table 6, 7 and 8) and Haloscent® D (0.5 wt %) were added to the second set. All these formulations were placed at 3° C. and 45° C. for several weeks. All formulations were evaluated in comparison with unperfumed deodorant or antiperspirant formulation. The coloration of each formulation was assessed by a minimum of 2 panelists.

[3] = as above; format: physicochemical; parameters: key: CO: color; COYE: yelow color; VSCOYE: very slight yellow color; SCOYE: slight yellow color; VCOYE: very yellow color; NC: no color; DECO: decoloration; CL: cloud; VCL: very cloud; WH: white; VCOBR: very brown color; COPI: ping color; settings: perfuming ingredient 0.5 wt %, after 15 days
Protocol: as §1, §2, §3, §4, §5, §6

[4] = as above; format: physicochemical; parameters: key: CO: color; COYE: yellow color; SCOYE: slight yellow color; VCOYE: very yellow color; NC: no color; DECO: discoloration; CL: cloud; VCL: very cloud; WH: white; VCOBR: very brown color; COPI: ping color; settings: perfuming ingredient 0.5 wt %, after 15 days; for Coloration of deodorant spray: DEO SPRAY + Haloscent D 0.5 wt %; for Coloration of deodorant stick: DEO STICK + Haloscent D 0.5 wt %
Protocol: as §1, §2, §3, §4, §5, §6

[5] = AP Stick + Haloscent D 0.5 wt %, 3° C.
[6] = AP Stick + Haloscent D 0.5 wt %, 45° C.
[7] = AP SPRAY + Haloscent D 0.5 wt %, 3° C.
[8] = AP SPRAY + Haloscent D 0.5 wt %, 45° C.
[9] = DEO ROLL-ON + Haloscent D 0.5 wt %, 3° C.
[10] = DEO ROLL-ON + Haloscent D 0.5 wt %, 45° C.
[11] = DEO STICK + Haloscent D 0.5 wt %, 3° C.
[12] = DEO STICK + Haloscent D 0.5 wt %, 45° C.
[13] = DEO SPRAY + Haloscent D 0.5 wt %, 3° C.
[14] = DEO SPRAY + Haloscent D 0.5 wt %, 45° C.

Row | Molecule | Coloration of antiperspirant stick [2, 5] | Coloration of antiperspirant stick [2, 6] | Coloration of antiperspirant stick ([2]; AP Stick, 3° C.) | Coloration of antiperspirant stick ([2]; AP Stick, 45° C.) | Coloration of antiperspirant spray [3, 7] | Coloration of antiperspirant spray [3, 8] | Coloration of antiperspirant spray ([3]; AP SPRAY, 3° C.) | Coloration of antiperspirant spray ([3]; AP SPRAY, 45° C.) | Coloration of deodorant roll-on [3, 9] | Coloration of deodorant roll-on [3, 10] | Coloration of deodorant roll-on ([3]; DEO ROLL-ON, 3° C.) | Coloration of deodorant roll-on ([3]; DEO ROLL-ON, 45° C.) | Coloration of deodorant spray ([3]; DEO SPRAY, 3° C.) | Coloration of deodorant spray ([3]; DEO SPRAY, 45° C.) | Coloration of deodorant stick [3, 11] | Coloration of deodorant stick [3, 12] | Coloration of deodorant stick ([3]; DEO STICK, 3° C.) | Coloration of deodorant stick ([3]; DEO STICK, 45° C.) | Coloration of deodorant spray ([4]; 45° C.) | Coloration of deodorant spray [3, 13] | further results
1 | CCCCCCCCCCCCSC(CC(C)=O)C1C(C)=CCCC1(C)C (stereo not shown) [HALOSCENT®-I, 4-(dodecylthio)-4-(2,6,6-trimethylcyclohex-2-en-1-yl)butan-2-one] | – | – | – | – | – | – | – | – | – | – | – | – | – | – | – | – | – | – | – | – | Perceived intensity of fragrance versus control formulation (FIG. 1) ([1]; fragrance formulation 1 containing 3% HALOSCENT-I): significant increases
2 | 1-OXA-12-CYCLOHEXADECEN-2-ONE (A) + 1-OXA-13-CYCLOHEXADECEN-2-ONE [HABANOLIDE] | DECO | SCOYE | DECO | VSCOYE | SCOYE | SCOYE | NC | NC | WH | VCL | VCL | VCL | NC | NC | NC | NC | NC | NC | DECO | – | Coloration of deodorant spray ([4]; 3° C.): DECO
3 | CC(C)=CCC/C(C)=C/CO [(E)-3,7-DIMETHYL-2,6-OCTADIEN-1-OL] | VSCO | NC | DECO | NC | – | – | – | – | NC | NC | NC | NC | – | – | – | – | NC | NC | – | – | Coloration of deodorant stick ([4]; 3° C.): COYE; Coloration of deodorant stick ([4]; 45° C.): COYE
4 | CCCCCCCCCCCCSC(C)CC(=O)C1C(C)C=CCC1(C)C (stereo not shown) [Haloscent ® D, 3-(dodecylthio)-1-(2,6,6-trimethylcyclohex-3-en-1-yl)butan-1-one] | DECO PI | DECO PI | – | – | NC | SCOYE | – | – | NC | NC | – | – | – | – | NC | – | – | – | COYE | SCOYE | Perceived intensity of fragrance versus control formulation (FIG. 1) ([1]; fragrance formulation 1 containing 1.2% HALOSCENT-D): significant increases; Coloration of deodorant stick ([2]; DEO STICK + Haloscent D 0.5 wt %, 45° C., after 15 days): COYE CL
5 | CC(C)c1ccc2c(c1)OCC(=O)CO2 [CALONE, 7-ISOPROPYL-2H,4H-1,5-BENZODIOXEPIN-3-ONE] | – | – | – | – | – | – | – | SCOYE | NC | CO | NC | – | CO | CO | COPI | VCOBR | COPI | VCOBR | – | CO | Coloration of deodorant spray [3, 14]: CO; Coloration of antiperspirant spray [4, 7]: COYE; Coloration of antiperspirant spray [4, 8]: COYE; Coloration of antiperspirant spray ([4]; AP SPRAY, 3° C.): COYE; Coloration of deodorant roll-on ([4]; DEO ROLL-ON, 45° C.): DECO
6 | (+−)-(4E)-3-METHYL-4-CYCLOPENTADECEN-1-ONE (A) + (+−)-(5E)-3-METHYL-5-CYCLOPENTADECEN-1-ONE (B) + (+−)-(5Z)-3-METHYL-5-CYCLOPENTADECEN-1-ONE (C) [MUSCENONE DELTA] | – | – | – | – | – | – | NC | NC | WH | – | VCL | SCOYE | NC | NC | NC | NC | NC | NC | – | NC | Coloration of deodorant spray [3, 14]: NC; Coloration of antiperspirant spray [4, 7]: COYE; Coloration of antiperspirant spray [4, 8]: COYE; Coloration of deodorant roll-on [4, 10]: COYE
